Reference: PubChem BioAssay (NCI)
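Grown in 96-well plates, cells were treated for 48 hours with each compound at five concentrations. Insufficient inhibition: endpoint recorded as highest concentration tested. GI50 marks 50% less growth. TGI is the concentration that stops growth completely.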

Columns and labels:
Experiment in all cases: inhibition of tumour cell growth, NCI panel, 48 h
EKVX NSCLC = system: EKVX NSCLC
HCC-2998 colon = system: HCC-2998 colon
HL-60(TB) leukemia = system: HL-60(TB) leukemia
HOP-92 NSCLC = system: HOP-92 NSCLC
KM12 colon = system: KM12 colon
MALME-3M melanoma = system: MALME-3M melanoma
OVCAR-8 ovarian = system: OVCAR-8 ovarian
SK-MEL-5 melanoma = system: SK-MEL-5 melanoma
UACC-62 melanoma = system: UACC-62 melanoma
UO-31 renal = system: UO-31 renal

`CCOC1C=CCCO1` (centres undefined) was tested, and the TGI (EKVX NSCLC) was over 100 µM, the TGI (HCC-2998 colon) was 9.11 µM and the TGI (HL-60(TB) leukemia) was over 100 µM. For the same molecule, the TGI (HOP-92 NSCLC) was over 100 µM, the TGI (KM12 colon) was over 100 µM and the TGI (MALME-3M melanoma) was over 100 µM. For the same molecule, the TGI (OVCAR-8 ovarian) was over 100 µM, the TGI (SK-MEL-5 melanoma) was over 100 µM and the TGI (UACC-62 melanoma) was over 100 µM. The TGI (UO-31 renal) was 38.8 µM.
With `COc1ccc(/C=C/C(=O)c2cc3c(N)c(C(=O)Nc4ccccc4)sc3nc2C)cc1` the GI50 (EKVX NSCLC) was 0.752 µM, the TGI (EKVX NSCLC) was over 50 µM and the GI50 (HCC-2998 colon) was 0.785 µM. It also gave a TGI (HCC-2998 colon) of 6.53 µM, a GI50 (HL-60(TB) leukemia) of 0.119 µM and a TGI (HL-60(TB) leukemia) of 0.342 µM. The GI50 (HOP-92 NSCLC) was 1.17 µM, the TGI (HOP-92 NSCLC) was 14 µM and the GI50 (KM12 colon) was 0.204 µM. The TGI (KM12 colon) was 7.18 µM, the GI50 (MALME-3M melanoma) was 1.7 µM and the TGI (MALME-3M melanoma) was over 50 µM. The GI50 (OVCAR-8 ovarian) was 0.277 µM, the TGI (OVCAR-8 ovarian) was over 50 µM and the GI50 (SK-MEL-5 melanoma) was 0.136 µM. The TGI (SK-MEL-5 melanoma) was 0.862 µM, the GI50 (UACC-62 melanoma) was 0.119 µM and the TGI (UACC-62 melanoma) was over 50 µM. The GI50 (UO-31 renal) was 0.688 µM and the TGI (UO-31 renal) was 20.1 µM.
`COc1cc(/C=C/C(=O)c2c(C)n([O-])c3ccc(Cl)cc3[n+]2=O)cc(OC)c1OC` gave a GI50 (EKVX NSCLC) of 25.2 µM, a TGI (EKVX NSCLC) of over 100 µM and a GI50 (HCC-2998 colon) of over 100 µM. The TGI (HCC-2998 colon) was over 100 µM, the GI50 (HL-60(TB) leukemia) was over 100 µM and the TGI (HL-60(TB) leukemia) was over 100 µM. For the same molecule, the GI50 (HOP-92 NSCLC) was 0.0718 µM, the TGI (HOP-92 NSCLC) was 3.53 µM and the GI50 (KM12 colon) was over 100 µM. The TGI (KM12 colon) was over 100 µM, the GI50 (MALME-3M melanoma) was 14.1 µM and the TGI (MALME-3M melanoma) was 35.3 µM. For the same molecule, the GI50 (OVCAR-8 ovarian) was 11.8 µM, the TGI (OVCAR-8 ovarian) was 33.4 µM and the GI50 (SK-MEL-5 melanoma) was 68 µM. It also gave a TGI (SK-MEL-5 melanoma) of over 100 µM, a GI50 (UACC-62 melanoma) of over 100 µM and a TGI (UACC-62 melanoma) of over 100 µM. The GI50 (UO-31 renal) was 1.55 µM and the TGI (UO-31 renal) was 5.47 µM.
Work on `C/C(=C\CC[C@]1(C)OC(C)(C)OC1CC/C(C)=C/CO[Si](c1ccccc1)(c1ccccc1)C(C)(C)C)CC/C=C/CO[Si](C)(C)C(C)(C)C` (some centres undefined) yielded a TGI (EKVX NSCLC) of over 100 µM, a TGI (HCC-2998 colon) of over 100 µM and a TGI (HL-60(TB) leukemia) of over 100 µM. It also gave a TGI (HOP-92 NSCLC) of over 100 µM, a TGI (KM12 colon) of over 100 µM and a TGI (MALME-3M melanoma) of over 100 µM. It also gave a TGI (OVCAR-8 ovarian) of over 100 µM, a TGI (SK-MEL-5 melanoma) of over 100 µM and a TGI (UACC-62 melanoma) of over 100 µM. For the same molecule, the TGI (UO-31 renal) was over 100 µM.
For `C[CH2][Sn]([Cl])([Cl])[CH2]C`, the GI50 (EKVX NSCLC) was over 65.6 µM, the TGI (EKVX NSCLC) was over 100 µM and the GI50 (HCC-2998 colon) was over 64.9 µM. For the same molecule, the TGI (HCC-2998 colon) was over 100 µM, the GI50 (HL-60(TB) leukemia) was over 75.9 µM and the TGI (HL-60(TB) leukemia) was over 100 µM. It also gave a GI50 (HOP-92 NSCLC) of 19.7 µM, a TGI (HOP-92 NSCLC) of 36.2 µM and a GI50 (KM12 colon) of over 100 µM. The TGI (KM12 colon) was over 100 µM, the GI50 (MALME-3M melanoma) was 15.8 µM and the TGI (MALME-3M melanoma) was 30.3 µM. The GI50 (OVCAR-8 ovarian) was over 100 µM, the TGI (OVCAR-8 ovarian) was over 100 µM and the GI50 (SK-MEL-5 melanoma) was 45.5 µM. For the same molecule, the TGI (SK-MEL-5 melanoma) was over 100 µM, the GI50 (UACC-62 melanoma) was 22 µM and the TGI (UACC-62 melanoma) was 47.8 µM. The GI50 (UO-31 renal) was 97.8 µM and the TGI (UO-31 renal) was over 100 µM.
Molecule `CC1=NN(C(=O)c2ccc(Cl)cc2)C(=O)/C1=C/c1ccc(O)cc1` has a TGI (EKVX NSCLC) of over 100 µM, a TGI (HCC-2998 colon) of over 100 µM and a TGI (HL-60(TB) leukemia) of over 100 µM. It also gave a TGI (HOP-92 NSCLC) of over 100 µM, a TGI (KM12 colon) of over 100 µM and a TGI (MALME-3M melanoma) of over 100 µM. It also gave a TGI (OVCAR-8 ovarian) of over 100 µM, a TGI (SK-MEL-5 melanoma) of over 100 µM and a TGI (UACC-62 melanoma) of over 100 µM. It also gave a TGI (UO-31 renal) of over 100 µM.
Molecule `O=C(/C=C/c1ccc(C(F)(F)F)cc1)c1ccc(Nc2nc(NCCO)nc(N3CCOCC3)n2)cc1` has a GI50 (EKVX NSCLC) of 2.44 µM, a TGI (EKVX NSCLC) of 8.01 µM and a GI50 (HCC-2998 colon) of 2.34 µM. It also gave a TGI (HCC-2998 colon) of 5.7 µM, a GI50 (HL-60(TB) leukemia) of 2.92 µM and a TGI (HL-60(TB) leukemia) of 8.64 µM. The GI50 (HOP-92 NSCLC) was 2.48 µM, the TGI (HOP-92 NSCLC) was 9.2 µM and the GI50 (KM12 colon) was 1.8 µM. It also gave a TGI (KM12 colon) of 3.3 µM, a GI50 (MALME-3M melanoma) of 2.91 µM and a TGI (MALME-3M melanoma) of 10.2 µM. For the same molecule, the GI50 (OVCAR-8 ovarian) was 3.25 µM, the TGI (OVCAR-8 ovarian) was 12.4 µM and the GI50 (SK-MEL-5 melanoma) was 3.16 µM. It also gave a TGI (SK-MEL-5 melanoma) of 10.2 µM, a GI50 (UACC-62 melanoma) of 2.76 µM and a TGI (UACC-62 melanoma) of 8.87 µM. For the same molecule, the GI50 (UO-31 renal) was 1.31 µM and the TGI (UO-31 renal) was 2.58 µM.
For `C=CCCCCCC(O)C(O)C/C=C\C/C=C\CC` (centres undefined), the TGI (EKVX NSCLC) was over 18.8 µM, the TGI (HCC-2998 colon) was over 18.8 µM and the TGI (HL-60(TB) leukemia) was over 18.8 µM. It also gave a TGI (HOP-92 NSCLC) of over 18.8 µM, a TGI (KM12 colon) of over 18.8 µM and a TGI (MALME-3M melanoma) of over 18.8 µM. The TGI (OVCAR-8 ovarian) was over 18.8 µM, the TGI (SK-MEL-5 melanoma) was over 18.8 µM and the TGI (UACC-62 melanoma) was over 18.8 µM. It also gave a TGI (UO-31 renal) of over 18.8 µM.
`C[C@@H]1C[C@@]2(O[C@@H]2C)C(=O)O[C@@H]2CCN3CC=C(COC(=O)[C@]1(C)O)[C@H]23` was tested, and the TGI (EKVX NSCLC) was over 100 µM, the TGI (HCC-2998 colon) was over 100 µM and the TGI (HL-60(TB) leukemia) was over 100 µM. For the same molecule, the TGI (HOP-92 NSCLC) was over 100 µM, the TGI (KM12 colon) was over 100 µM and the TGI (MALME-3M melanoma) was over 100 µM. For the same molecule, the TGI (OVCAR-8 ovarian) was over 100 µM, the TGI (SK-MEL-5 melanoma) was over 100 µM and the TGI (UACC-62 melanoma) was over 100 µM. It also gave a TGI (UO-31 renal) of over 100 µM.
With `N#CC(C#N)=C1SCC(=O)CS1` the TGI (EKVX NSCLC) was over 100 µM, the TGI (HCC-2998 colon) was over 100 µM and the TGI (HL-60(TB) leukemia) was over 100 µM. The TGI (HOP-92 NSCLC) was over 100 µM, the TGI (KM12 colon) was over 100 µM and the TGI (MALME-3M melanoma) was over 100 µM. The TGI (OVCAR-8 ovarian) was over 100 µM, the TGI (SK-MEL-5 melanoma) was over 100 µM and the TGI (UACC-62 melanoma) was over 100 µM. The TGI (UO-31 renal) was over 100 µM.
With `CCOC(=O)NC(=O)c1cn(CCN2CCN(C(=O)NCCCCCCNC(=O)N3CCN(CCn4cc(C(=O)NC(=O)OCC)c(=O)n(CCN(CC)CC)c4=O)CC3)CC2)c(=O)n(CCC(CC)CC)c1=O` the TGI (EKVX NSCLC) was over 100 µM, the TGI (HCC-2998 colon) was over 100 µM and the TGI (HL-60(TB) leukemia) was over 100 µM. It also gave a TGI (HOP-92 NSCLC) of over 100 µM, a TGI (KM12 colon) of over 100 µM and a TGI (MALME-3M melanoma) of over 100 µM. For the same molecule, the TGI (OVCAR-8 ovarian) was over 100 µM, the TGI (SK-MEL-5 melanoma) was over 100 µM and the TGI (UACC-62 melanoma) was over 100 µM. For the same molecule, the TGI (UO-31 renal) was over 100 µM.
For `Oc1c(N=Nc2ccccc2)c2ccccc2c2ccc3ccccc3c12`, the TGI (EKVX NSCLC) was over 100 µM, the TGI (HCC-2998 colon) was over 100 µM and the TGI (HL-60(TB) leukemia) was over 100 µM. For the same molecule, the TGI (HOP-92 NSCLC) was over 100 µM, the TGI (KM12 colon) was over 100 µM and the TGI (MALME-3M melanoma) was over 100 µM. The TGI (OVCAR-8 ovarian) was over 100 µM, the TGI (SK-MEL-5 melanoma) was over 100 µM and the TGI (UACC-62 melanoma) was over 100 µM. The TGI (UO-31 renal) was over 100 µM.
With `Cn1c(=O)c(C(=O)NC(=O)OCc2ccccc2)cn(CCSCCOC(=O)NCCCCCCNC(=O)OCCSCCn2cc(C(=O)NC(=O)OCc3ccccc3)c(=O)n(C)c2=O)c1=O` the TGI (EKVX NSCLC) was over 100 µM, the TGI (HCC-2998 colon) was over 100 µM and the TGI (HL-60(TB) leukemia) was over 100 µM. The TGI (HOP-92 NSCLC) was 87.5 µM, the TGI (MALME-3M melanoma) was over 100 µM and the TGI (OVCAR-8 ovarian) was over 100 µM. The TGI (SK-MEL-5 melanoma) was over 100 µM, the TGI (UACC-62 melanoma) was over 100 µM and the TGI (UO-31 renal) was over 100 µM.
